Target: T1, human recombinant HDAC6 (Homo sapiens, UniProt Q9UBN7)
T1 construct: purchased BPS Bioscience 50006
T1 sequence (Q9UBN7 1-1215): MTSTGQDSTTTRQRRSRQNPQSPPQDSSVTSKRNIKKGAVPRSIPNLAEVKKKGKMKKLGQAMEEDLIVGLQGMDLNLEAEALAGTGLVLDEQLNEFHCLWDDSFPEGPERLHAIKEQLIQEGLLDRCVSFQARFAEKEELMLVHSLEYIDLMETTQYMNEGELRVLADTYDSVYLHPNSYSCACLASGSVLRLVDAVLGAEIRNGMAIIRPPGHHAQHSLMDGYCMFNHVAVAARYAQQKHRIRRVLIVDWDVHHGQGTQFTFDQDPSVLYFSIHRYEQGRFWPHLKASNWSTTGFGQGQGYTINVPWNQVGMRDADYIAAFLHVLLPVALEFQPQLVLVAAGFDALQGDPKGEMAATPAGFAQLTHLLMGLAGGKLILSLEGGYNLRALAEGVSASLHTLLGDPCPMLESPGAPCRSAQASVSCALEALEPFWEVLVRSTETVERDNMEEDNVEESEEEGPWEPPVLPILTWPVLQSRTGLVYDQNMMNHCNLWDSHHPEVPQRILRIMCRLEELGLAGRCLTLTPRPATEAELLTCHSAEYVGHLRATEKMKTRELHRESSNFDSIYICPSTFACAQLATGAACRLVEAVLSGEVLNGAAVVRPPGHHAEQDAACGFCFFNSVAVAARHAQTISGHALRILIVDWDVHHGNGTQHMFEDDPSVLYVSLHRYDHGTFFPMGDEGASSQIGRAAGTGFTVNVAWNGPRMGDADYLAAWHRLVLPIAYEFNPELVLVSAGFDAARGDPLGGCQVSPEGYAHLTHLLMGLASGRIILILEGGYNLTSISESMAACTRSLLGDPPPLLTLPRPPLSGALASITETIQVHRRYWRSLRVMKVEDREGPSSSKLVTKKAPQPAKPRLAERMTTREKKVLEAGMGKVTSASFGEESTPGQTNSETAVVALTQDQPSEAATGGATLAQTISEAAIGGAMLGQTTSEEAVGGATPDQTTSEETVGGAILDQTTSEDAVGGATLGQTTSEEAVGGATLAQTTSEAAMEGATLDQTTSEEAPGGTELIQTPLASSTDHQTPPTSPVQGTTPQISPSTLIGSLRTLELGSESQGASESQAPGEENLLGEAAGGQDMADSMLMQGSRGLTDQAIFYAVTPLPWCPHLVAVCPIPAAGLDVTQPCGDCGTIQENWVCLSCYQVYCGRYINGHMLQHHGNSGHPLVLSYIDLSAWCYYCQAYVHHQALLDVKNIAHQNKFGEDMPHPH
Assay: ZMAL trypsin assay, HDAC6
Assay type: biochemical
Conditions: for inhibition at 10 µM: ZMAL trypsin assay
Procedure: [28] Assays for HDAC1/6 were prepared according to: B. Heltweg , J. Trapp , M. Jung , Methods 2005, 36, 332–337; assays for HDAC8 were prepared according to: J. Senger , J. Melesina , M. Marek , C. Romier , I. Oehme , O. Witt , W. Sippl , M. Jung , J. Med. Chem. 2016, 59, 1545–1555. […]
hHDAC1/6: Activity assays were performed in OptiPlateTM-96 F black microplates (PerkinElmer). Commercial available enzymes (human recombinant HDAC1; BPS Bioscience, catalog no. 50051 and human recombinant HDAC6; BPS Bioscience, catalog no. 50006) were used. Total assay volume of 60 µL contains 42 µl of assay buffer (50 mM Tris -HCl, pH 8.0, 137 mM NaCl, 2.7 mM KCl, 1 mM MgCl2, 0.2 mM TCEP and 1 mg/mL bovine serum albumin), 10 µL of enzyme solution in assay buffer, 3 µL of increasing concentrations of inhibitors in DMSO and 5 μL of the fluorogenic substrate ZMAL (Z -(Ac)Lys-AMC) (126 μM). After incubation (90 min, 37 °C) 60 µL of stop solution, containing 5 μL Trichostatin A (TSA) (33 μM) and 10 μL trypsin (6 mg/mL) in trypsin buffer (Tris-HCl 50 mM, pH 8.0, NaCl 100 mM), were added. […]

inhibition at 10 µM [%] | Structure (SMILES) | HDAC6 inhibition (in words)
30 | CCCC[C@H]1NC(=O)C[C@@H](/C=C/CCSC(C)=O)OC(=O)C[C@H](O)[C@@H]([C@@H](C)CC)NC(=O)[C@@H](C)NC1=O [compound 33] | –
39 | CCCC[C@H]1NC(=O)C[C@@H](/C=C/CCC(=O)NO)OC(=O)C[C@H](O)[C@@H]([C@@H](C)CC)NC(=O)[C@@H](C)NC1=O [compound 8] | –

Structure (SMILES) | inhibition at 10 µM [%] | HDAC6 inhibition (in words)
CCCC[C@H]1NC(=O)C[C@@H](/C=C/CCSC(C)=O)OC(=O)C[C@H](O[Si](C)(C)C(C)(C)C)[C@@H]([C@@H](C)CC)NC(=O)[C@@H](C)NC1=O [compound 32] | < 5 | not inhibited

Reference: paper PMC7756392, “Syntheses of Thailandepsin B Pseudo‐Natural Products: Access to New Highly Potent HDAC Inhibitors via Late‐Stage Modification” (Chemistry (Weinheim an Der Bergstrasse, Germany), 2020)
